According to patent US9061984B2 (University of Louisville Research Foundation, Inc., priority 2008, dated 2015):
pIC50: −log10 of the molar value. Converted amounts (≈) assume the structure as drawn. Where two headings read alike, the source gives them in different places.

Experiments:
[1] = Cytotoxicity VERO cell (Table 6); details: African green monkey, VERO cells
L. peruviana LCA08 = assay: Activity against macrophages infected with Leishmania amastigotes; details: Leishmania peruviana, Macrophage, read-out: IC50 L. peruviana LCA08
M-14 cells = assay: Cell growth inhibition bioassay (sulforhodamine B); type: cell-based, human; details: Homo sapiens, M14; 48 h, SRB; read-out: GI50 in indicated cell line: M-14
Summary of the method: (§1)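 Cells were exposed to compound alongside matched solvent controls, then stained with sulforhodamine B. Percent growth inhibition was calculated from dye absorbance against the control.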

DU145 cells = assay: Cell growth inhibition bioassay (sulforhodamine B); type: cell-based, human; details: Homo sapiens, DU-145; 48 h, SRB; read-out: GI50 in indicated cell line: DU145
Summary of the method: (§2)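 Cytotoxicity is read by sulforhodamine B colorimetry following the Skehan protocol; values are growth inhibition relative to solvent-only wells.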

H460 cells = assay: Cell growth inhibition bioassay (sulforhodamine B); type: cell-based, human; details: Homo sapiens, NCI-H460; 48 h, SRB; read-out: GI50 in indicated cell line: H460
Summary of the method: as §1

K562 cells = assay: Cell growth inhibition bioassay (sulforhodamine B); type: cell-based, human; details: Homo sapiens, K562; 48 h, SRB; read-out: GI50 in indicated cell line: K562
Summary of the method: as §1

MCF-7 cells = assay: Cell growth inhibition bioassay (sulforhodamine B); type: cell-based, human; details: Homo sapiens, MCF7; 48 h, SRB; read-out: GI50 in indicated cell line: MCF-7
Summary of the method: as §2

HT-29 cells = assay: Cell growth inhibition bioassay (sulforhodamine B); type: cell-based, human; details: Homo sapiens, HT-29; 48 h, SRB; read-out: GI50 in indicated cell line: HT-29
Summary of the method: as §1

VERO cells = assay: Cell growth inhibition bioassay (sulforhodamine B); type: cell-based, African Green Monkey; details: Chlorocebus sabaeus, Vero; 48 h, SRB; read-out: GI50 in indicated cell line: VERO
Summary of the method: as §1

M. tuberculosis H37Rv = assay: Conventional aerobic (MABA) culture assay, luminescence MIC; type: cell-based, Mycobacterium tuberculosis
[2] = Toxicity to peritoneal macrophages (Trypan Blue count); type: cell-based, BALB/C mouse; details: BALB/C, mouse, Cytotoxicity Macrophages IC50
[3] = test system: Trypanosoma cruzi (Tulahuen C4); assay: In vitro anti-T. cruzi activity (β-galactosidase CPRG colorimetric assay in VERO monolayer); type: cell-based; details: for IC50: Trypanosoma cruzi, TULAHUEN, Vero
L. braziliensis PER006 = assay: Activity against macrophages infected with Leishmania amastigotes; details: Leishmania braziliensis, Macrophage, read-out: IC50 L. braziliensis PER006
Description: A cloned line of Leishmania amazonensis(strain MHOM/BR/76/LTB-012) was used in all experiments. Axenically grown amastigote forms of L. amazonensis were maintained by weekly subpassages in MAA/20 medium (Sereno and Lemesre, Antimicrobial Agents and Chemotherapy 41, 972-976 (1997)) at 32±1° C. in 25 cm^2 tissue culture flasks. L. peruviana (strain MHOM/PE/LCA08) and L. braziliensis (strainMHOM/PE/PER006) were maintained in the promastigote stage in a biphasic medium (blood agar with 0.89% NaCl, pH 7.4) at 24° C., with sub-passage every 3 to 4 days. Promastigotes (5×10^6 parasites) were then transferred to 25 cm2 tissue culture flasks containing 5 ml of M199 medium supplemented with 10% foetal bovine serum (FBS), pH 7.4. After 4 days, exponential phase promastigotes were centrifuged for 10 minutes at 1500 g and 4° C. The supernatant was discarded and replaced by fresh M199 medium supplemented with 20% FBS, pH 5.5. Axenic amastigotes transformation was then induced by increasing the temperature to 34° C. and incubating for 96 h (Teixeira et al., Parasitology Research 88, 963-968 (2002)).
Extracted cells were immediately deposited on sterile 4×4 mm cover glasses and placed in each well of a 96-well plate. Plates were incubated for 24 h at 37° C., 5% CO2 to allow cell adhesion (Castillo et al, Journal of Ethnopharmacology 112, 410-414 (2007)). Pre-warmed complete M199 medium was used twice to remove non-adherent cells. A neutral red method (Fautz et al., Mutation Research 253, 173-179 (1991)) was employed to determine cell concentration. Approximately 7×10^4 viable cells were deposited in each well for adhesion.
Infection of macrophages by amastigotes was determined as follows. […] Twelve hours after infection, a solution of the compounds to be tested was added to the cultures at various concentrations and maintained at 37° C. in 5% CO2 for a further forty-eight hours more. The plates were fixed with methanol and stained with 10% Giemsa stain. The percentage of infected macrophages was determined microscopically at 100 times magnification. The number of intracellular amastigotes was determined in 300 cells. Following Delorenzi et al. Antimicrobial Agents and Chemotherapy, 45, 1349-1354 (2001)) the percentage of infection rate (% IR) of each culture was calculated as follows: % IR=100−(infection rate of the treated culture/infection rate of the untreated culture)×100.
All experiments were performed in triplicate. ANOVA was used to test for statistical significance of differences (Epi-Info, Statview student program). The total parasite burden was calculated as a mean number of amastigotes per cells multiplied by the number of infected macrophages.

[4] = Cytotoxicity on VERO cells (MTT), anti-T. cruzi study; details: African green monkey, VERO cells, Cytotoxicity VERO Lab B, Lab B
[5] = test system: axenic amastigotes of L. amazonensis (strain MHOM/BR/76/LTB-012); assay: microbe, parasite or virus in culture; details: Leishmania amazonensis, read-out: L. amazonensis IC50
[6] = test system: axenic amastigotes of L. amazonensis (strain MHOM/BR/76/LTB-012); details: Table 8b
3T3 cells = assay: Cell growth inhibition bioassay (sulforhodamine B); type: cell-based, mouse; details: Mus musculus, NIH3T3; 48 h, SRB; read-out: GI50 in indicated cell line: 3T3
Summary of the method: as §1

**Q.** For `C(=N/Nc1ncnc2sc3c(c12)CCCC3)/c1ccccn1` [II-21], which IC50 [1] is on record?
**A.** 10.8 µg/mL (≈ 34.9 µM)

**Q.** And the IC50 (L. peruviana LCA08)?
**A.** 0.2 µg/mL (≈ 0.646 µM)

**Q.** And the GI50 (M-14 cells)?
**A.** 0.078 µg/mL (≈ 0.252 µM)

**Q.** What about the GI50 (DU145 cells) of the same compound?
**A.** 0.115 µg/mL (≈ 0.372 µM)

**Q.** What about the GI50 (H460 cells) of the same compound?
**A.** 0.123 µg/mL (≈ 0.398 µM)

**Q.** What about the GI50 (K562 cells) of the same compound?
**A.** 0.051 µg/mL (≈ 0.165 µM)

**Q.** And the GI50 (MCF-7 cells)?
**A.** 0.026 µg/mL (≈ 0.084 µM)

**Q.** And the GI50 (HT-29 cells)?
**A.** 0.03 µg/mL (≈ 0.097 µM)

**Q.** And the GI50 (VERO cells)?
**A.** 0.156 µg/mL (≈ 0.504 µM)

**Q.** And the MIC (M. tuberculosis H37Rv; Mycobacterium tuberculosis, 168 h, aerobic, 7 days, H37Rv)?
**A.** 44.9 µg/mL (≈ 145 µM)

**Q.** What about the “Selectivity Index H37Rv” value (M. tuberculosis H37Rv; VERO vs MABA MIC) of the same compound?
**A.** 0.2

**Q.** What about the IC50 at 48 h [2] of the same compound?
**A.** 2 µM

**Q.** And the “Selectivity Index Lab B” value ([3]; IC50, VERO/IC50, T. cruzi, Lab B)?
**A.** 0.1

**Q.** And the IC50 ([3]; Lab A, read-out: T. cruzi IC50 Lab A)?
**A.** 0.1 µg/mL (≈ 0.323 µM)

**Q.** What about the IC50 ([3]; Lab B, read-out: T. cruzi IC50 Lab B) of the same compound?
**A.** 1.2 µg/mL (≈ 3.88 µM)

**Q.** What about the IC50 (L. braziliensis PER006) of the same compound?
**A.** 0.19 µg/mL (≈ 0.614 µM)

**Q.** What about the IC50 [4] of the same compound?
**A.** < 0.08 µg/mL

**Q.** And the pIC50 [5]?
**A.** 6.70

**Q.** What about the “Selectivity Index” value [6] of the same compound?
**A.** 13.0

**Q.** And the GI50 (3T3 cells)?
**A.** 0.013 µg/mL (≈ 0.042 µM)
